Measured values from patent publication US20170051149A1, “AZOARYLS AS REVERSIBLY MODULATABLE TUBULIN INHIBITORS” (ECOLE NORMALE SUPERIEURE DE LYON, priority 2014, published 2017).

Assay: photoisomerisation: photostationary state, calculated φ(λ) and E(λ), reversible cycling
Type: physicochemical
Method: In a simple analysis of the PSS(λ) and E(λ), it was approximated that ΦEZ and ΦZE (the quantum efficiencies of the photoisomerisations trans->cis and cis->trans, respectively) are equal and independent of wavelength, and also that the kinetics of spontaneous reversion could be ignored (eg. high-intensity light source). A function φ(λ) was then calculated as per: […]
If ΦEZ and ΦZE are equal and independent of wavelength, φ(λ) gives the true PSS(λ). The wavelength independence of ΦEZ and ΦZE may be an acceptable approximation in regions of relatively strong absorption within the visible spectrum. Their equality may also be an acceptable assumption: since if ΦEZ and ΦZE are unequal but only depend weakly on wavelength in regions of relatively strong absorption, then φ(λ) is a transform of the true PSS(λ); this transform preserves the features of PSS(λ) which were most desired for evaluation in this study as long as ΦEZ and ΦZE are not too different (eg less than a factor of ten difference). Indeed, the calculated φ(λ) were later confirmed by in cellulo experiments to give reliable indications of favourable wavelengths for bulk trans->cis and bulk cis->trans photoisomerisation, which is the benchmark for a suitable analysis of the PSS(λ). The advantages of calculating φ(λ) rather than exhaustively measuring the PSS(λ) experimentally are that (a) the throughput is much faster, (b) the true PSS(λ) may be difficult to achieve at weakly-absorbing wavelengths or with fast-relaxing compounds, (c) the true PSS(λ) may be difficult to measure accurately at wavelengths where one isomer strongly dominates the sample even if both are relatively strongly absorbing, and (d) the variation of PSS(λ) with changes in the local biological microenvironment (polarity, pH etc) may anyway be larger than the error incurred by the assumption φ(λ)═PSS(λ).
Also following the assumption that ΦEZ and ΦZE are equal and independent of wavelength, a photoisomerisation efficiency E(λ) was calculated as per:
E(λ)=[εE(λ)+εZ(λ)]/[εE(390)+εZ(390)]
Larger values of E(λ) therefore denote higher efficiency photoisomerisation (less photon flux is required to approach the PSS(λ)). E(λ) was parametrised to the absorption coefficients at 390 nm, since typically that wavelength gave satisfactorily strong absorption and efficient photoisomerisation. It should be noted that E(λ) are not intercomparable between different compounds. This reflects the realistic scenario that the ΦEZ (or the ΦZE) of two arbitrarily chosen compounds may differ by a significant amount, even if the approximation that ΦEZ and ΦZE are equal and independent of wavelength applies independently to each compound.
A(λstrong) was measured over time in the UV-Vis cuvette in non-degassed PBS left open to the atmosphere, […], at 37° C., while the monochromator was used to apply λirrad alternating between two values λ1 and λ2, chosen to induce net trans->cis and net cis->trans isomerisation respectively. Typical results are presented for compound I.1 (FIG. 3). The absorbance of I.1 (18 μM) was measured at λstrong=378 nm, while the irradiating wavelength was held alternately at λ1=388 nm (50 s; bulk trans->cis) then λ2=508 nm (180 s, bulk cis->trans). Higher absorbance corresponds to a greater amount of trans isomer: an absorbance of 0.27 here corresponds to an approximately 5:1 ratio of trans:cis isomer in the sample, and an absorbance of 0.12 here corresponds to an approximately 1:2 ratio of trans:cis isomer in the sample. […] Typically, compounds of the invention could be bulk-photoisomerised hundreds of times over a timescale of hours (50 representative cycles are shown in FIG. 3 for I.1), such that the majority species in a sample was photocontrollably alternated between the trans-isomer and the cis-isomer. […]

CCN(CC)c1ccc2c(-c3ccccc3C(=O)N3CCN(CCCOc4c(N=Nc5cc(OC)c(OC)c(OC)c5)ccc(OC)c4C)CC3)c3ccc(=[N+](CC)CC)cc-3oc2c1.CCN(CC)c1ccc2c(-c3ccccc3C(=O)N3CCN(CCCOc4c(N=Nc5cc(OC)c(OC)c(OC)c5)ccc(OC)c4C)CC3)c3ccc(=[N+](CC)CC)cc-3oc2c1.O=C[O-].O=C[O-] [I.25, N-(6-(diethylamino)-9-(2-(4-(3-(3-methoxy-2-methyl-6-((3,4,5-trimethoxyphenyl)diazenyl)phenoxy)propyl)piperazine-1-carbonyl)phenyl)-3H-xanthen-3-ylidene)-N-ethylethanaminium bis(formate) salt]
% trans (irradiation at 554 nm, 33 μM, PBS 20% MeCN, 37° C.): 100% | % cis before photorelaxation (state before 550 nm irradiation): > 70% | % trans after photorelaxation (very low intensity light of 550 nm): > 99%
